For assay [1], the target named is T1, BRD4 Bromo Domain 1 [BRD4(1)] (Homo sapiens, UniProt O60885).
T1 construct: N-terminally His6-tagged BRD4(1) (amino acids 67-152); made in house; host or cells: E. coli
As to the kind of experiment: BRD4(1)/acetylated peptide H4 binding assay (TR-FRET). The note with it: inhibition of interaction between His6-tagged BRD4(1) (amino acids 67-152) and acetylated histone H4 peptide. From the text: Protein-Protein Interaction Assay: BRD4/Acetylated Peptide H4 Binding Assay
1. Assay Description for BRD4 Bromo Domain 1 [BRD4(1)]
To assess the BRD4(1) binding strength of the substances described in this application, the ability thereof to inhibit the interaction between BRD4(1) and acetylated histone H4 in a dose-dependent manner was quantified.
For this purpose, a time-resolved fluorescence resonance energy transfer (TR-FRET) assay was used, which measures the binding between N-terminally His6-tagged BRD4(1) (amino acids 67-152) and a synthetic acetylated histone H4 (Ac-H4) peptide with sequence GRGK(Ac)GGK(Ac)GLGK(Ac)GGAK(Ac)RHGSGSK-biotin. The recombinant BRD4(1) protein produced in house according to Filippakopoulos et al., Cell, 2012, 149:214-231 was expressed in E. coli and purified by means of (Ni-NTA) affinity and (Sephadex G-75) size exclusion chromatography. The Ac-H4 peptide can be purchased, for example, from Biosyntan (Berlin, Germany).
In the assay, typically 11 different concentrations of each substance (0.1 nM, 0.33 nM, 1.1 nM, 3.8 nM, 13 nM, 44 nM, 0.15 μM, 0.51 μM, 1.7 μM, 5.9 μM and 20 μM) were analysed as duplicates on the same microtitre plate. For this purpose, 100-fold concentrated solutions in DMSO were prepared by serial dilutions (1:3.4) of a 2 mM stock solution into a clear, 384-well microtitre plate (Greiner Bio-One, Frickenhausen, Germany). From this, 50 nl were transferred into a black test plate (Greiner Bio-One, Frickenhausen, Germany). The test was started by the addition of 2 μl of a 2.5-fold concentrated BRD4(1) solution (final concentration typically 10 nM in the 5 μl of reaction volume) in aqueous assay buffer [50 mM HEPES pH 7.5, 50 mM sodium chloride (NaCl), 0.25 mM CHAPS and 0.05% serum albumin (BSA)] to the substances in the test plate. This was followed by a 10-minute incubation step at 22° C. for the pre-equilibration of putative complexes between BRD4(1) and the substances.
The mixture was then incubated in the dark at 22° C. for one hour and then at 4° C. for at least 3 hours and for no longer than overnight. The formation of BRD4(1)/Ac-H4 complexes was determined by the measurement of the resonance energy transfer from the streptavidin-Eu cryptate to the anti-6His-XL665 antibody present in the reaction. For this purpose, the fluorescence emission was measured at 620 nm and 665 nm after excitation at 330-350 nm in a TR-FRET measuring instrument, for example a Rubystar or Pherastar (both from BMG Lab Technologies, Offenburg, Germany) or a Viewlux (Perkin-Elmer). The ratio of the emissions at 665 nm and at 622 nm was taken as an indicator of the amount of BRD4(1)/Ac-H4 complexes formed.
The data (ratios) obtained were normalized, with 0% inhibition corresponding to the mean from the measurements for a set of controls (typically 32 data points) in which all the reagents were present. In these, in place of test substances, 50 nl of DMSO (100%) were used Inhibition of 100% corresponded to the mean from the measurements for a set of controls (typically 32 data points) in which all the reagents except BRD4(1) were present. The IC50 was determined by regression analysis based on a 4-parameter equation (minimum, maximum, IC50, Hill; Y=max+(min−max)/(1+(X/IC50)Hill).

Assay [2] deals with B16F10 cells. The assay is described as follows: B16F10 cell proliferation assay (alamarBlue). The format is cell-based. The note with it: B16-F10; inhibition of cell proliferation, 96 hours, mouse melanoma cell line. As to the method: In accordance with the invention, the ability of the substances to inhibit cell proliferation was determined Cell viability was determined by means of the alamarBlue® reagent (Invitrogen) in a Victor X3 Multilabel Reader (Perkin Elmer). The excitation wavelength was 530 nm and the emission wavelength […].
The B16F10 cells (ATCC, CRL-6475) were sown at a concentration of 300-500 cells/well in 100 μl of growth medium (DMEM with phenol red, 10% FCS) on 96-well microtitre plates.
After overnight incubation at 37° C., the fluorescence values were determined (CI values). Then the plates were treated with various substance dilutions (1E-5 M, 3E-6 M, 1E-6 M, 3E-7 M, 1E-7 M, 3E-8 M, 1E-8 M) and incubated at 37° C. over 96 hours (MOLM-13, B16F10 cells) or 120 hours (MOLP-8 cells). Subsequently, the fluorescence values were determined (CO values). For the data analysis, the CI values were subtracted from the CO values and the results were compared between cells which had been treated with various dilutions of the substance or only with buffer solution. The IC50 values (substance concentration needed for 50% inhibition of cell proliferation) were calculated therefrom.
B16F10 mouse melanoma cell line
(In general: Resazurin is reduced to fluorescent resorufin, in cell work by metabolically active cells.)

One may read the IC50 as the concentration that inhibits the measured activity by half. A lower IC50 goes with inhibition by little substance.

For the compound `C[C@@H]1C(=O)N(C)c2ccc(Nc3ccc(C(=O)NC4CCCC4)cc3)cc2N1C1CCCC1` [Example 1, N-cyclopentyl-4-{[(3R)-4-cyclopentyl-1,3-dimethyl-2-oxo-1,2,3,4-tetrahydroquinoxalin-6-yl]amino}benzamide], the figures for the half-maximal inhibitory concentration (IC50) in assay [1] and in assay [2] were 173 nM and 1500 nM, respectively.

For `C[C@@H]1C(=O)N(C)c2ccc(Nc3ccc(C(=O)N4CCOCC4)cc3)cc2N1Cc1ccccc1` [Example 12, (3R)-4-benzyl-1,3-dimethyl-6-{[4-(morpholin-4-ylcarbonyl)phenyl]amino}-3,4-dihydroquinoxalin-2(1H)-one], the IC50 in assay [1] is 156 nM; in assay [2], 179 nM. Consider `COc1ccc(CN2c3cc(Nc4ccc(S(=O)(=O)N5CCN(C)CC5)cc4)ccc3N(C)C(=O)[C@H]2C)cc1` [Example 43, (3R)-4-(4-methoxybenzyl)-1,3-dimethyl-6-({4-[(4-methylpiperazin-1-yl)sulphonyl]phenyl}amino)-3,4-dihydroquinoxalin-2(1H)-one], for which the IC50 in assay [1] was 103 nM; in assay [2], 212 nM. As to `COc1ccc(CN2c3cc(Nc4ccc(S(=O)(=O)N5CCN(C(C)C)CC5)cc4)ccc3N(C)C(=O)[C@H]2C)cc1` [Example 44, (3R)-4-(4-methoxybenzyl)-1,3-dimethyl-6-[(4-{[4-(propan-2-yl)piperazin-1-yl]sulphonyl}phenyl)amino]-3,4-dihydroquinoxalin-2(1H)-one], the IC50 in assay [1] turned out to be 55 nM; in assay [2], 460 nM. As to `C[C@@H]1C(=O)N(C)c2ccc(Nc3ccc(C(=O)NCC4COC4)cc3)cc2N1C1CCCCCC1` [Example 25, 4-{[(3R)-4-cycloheptyl-1,3-dimethyl-2-oxo-1,2,3,4-tetrahydroquinoxalin-6-yl]amino}-N-(oxetan-3-ylmethyl)benzamide], in assay [1], the IC50 worked out at 454 nM. `COc1ccc(CN2c3cc(Nc4ccc(S(=O)(=O)N5CCOCC5)cc4)ccc3N(C)C(=O)[C@H]2C)cc1` [Example 42, (3R)-4-(4-methoxybenzyl)-1,3-dimethyl-6-{[4-(morpholin-4-ylsulphonyl)phenyl]amino}-3,4-dihydroquinoxalin-2(1H)-one]: the IC50 in assay [1] was found to be 120 nM; in assay [2], 79 nM. Regarding `C[C@@H]1C(=O)N(C)c2ccc(Nc3ccc(S(=O)(=O)N(C)C)cc3)cc2N1C1CCOCC1` [Example 46, 4-{[(3R)-1,3-dimethyl-2-oxo-4-(tetrahydro-2H-pyran-4-yl)-1,2,3,4-tetrahydroquinoxalin-6-yl]amino}-N,N-dimethylbenzenesulphonamide], the results for the IC50 in assay [1] and in assay [2] were 145 nM and 600 nM, respectively. Take `COc1ccc(CN2c3cc(Nc4ccc(C(=O)NC5CCN(C)CC5)cc4)ccc3N(C)C(=O)[C@H]2C)cc1` [Example 17, 4-{[(3R)-4-(4-methoxybenzyl)-1,3-dimethyl-2-oxo-1,2,3,4-tetrahydroquinoxalin-6-yl]amino}-N-(1-methylpiperidin-4-yl)benzamide]: the figures for the IC50 in assay [1] and in assay [2] were 114 nM and 378 nM, respectively. For `COc1ccc(CN2c3cc(Nc4ccc(S(=O)(=O)N(C)C)cc4)ccc3N(C)C(=O)[C@H]2C)cc1` [Example 41, 4-{[(3R)-4-(4-methoxybenzyl)-1,3-dimethyl-2-oxo-1,2,3,4-tetrahydroquinoxalin-6-yl]amino}-N,N-dimethylbenzenesulphonamide] the same measures were 183 nM and 175 nM. On to `C[C@@H]1C(=O)N(C)c2ccc(Nc3ccc(C(=O)NC4CN(C)C4)cc3)cc2N1C1CCOCC1` [Example 34, 4-{[(3R)-1,3-dimethyl-2-oxo-4-(tetrahydro-2H-pyran-4-yl)-1,2,3,4-tetrahydroquinoxalin-6-yl]amino}-N-(1-methylazetidin-3-yl)benzamide], for which the IC50 was 511 nM in assay [1] and 3570 nM in assay [2]. For `CC(C)NC(=O)c1ccc(Nc2ccc3c(c2)N(C2CCCC2)[C@H](C)C(=O)N3C)cc1` [Example 7, 4-{[(3R)-4-cyclopentyl-1,3-dimethyl-2-oxo-1,2,3,4-tetrahydroquinoxalin-6-yl]amino}-N-isopropylbenzamide], the half-inhibitory concentration (IC50) in assay [1] worked out at 167 nM; in assay [2], 1020 nM. As for `COc1ccc(CN2c3cc(Nc4ccc(C(=O)NCC5COC5)cc4)ccc3N(C)C(=O)[C@H]2C)cc1` [Example 19, 4-{[(3R)-4-(4-methoxybenzyl)-1,3-dimethyl-2-oxo-1,2,3,4-tetrahydroquinoxalin-6-yl]amino}-N-(oxetan-3-ylmethyl)benzamide], the IC50 in assay [1] came out at 148 nM; in assay [2], 248 nM. As for `C[C@@H]1C(=O)N(C)c2ccc(Nc3ccc(C(=O)NCCN4CCN(C)CC4)cc3)cc2N1C1CCOCC1` [Example 30, 4-{[(3R)-1,3-dimethyl-2-oxo-4-(tetrahydro-2H-pyran-4-yl)-1,2,3,4-tetrahydroquinoxalin-6-yl]amino}-N-[2-(4-methylpiperazin-1-yl)ethyl]benzamide], the results for the IC50 in assay [1] and in assay [2] were 384 nM and 2680 nM, respectively. Take `C[C@@H]1C(=O)N(C)c2ccc(Nc3ccc(C(=O)N4CCOCC4)cc3)cc2N1C1CCCC1` [Example 6, (3R)-4-cyclopentyl-1,3-dimethyl-6-{[4-(morpholin-4-ylcarbonyl)phenyl]amino}-3,4-dihydroquinoxalin-2(1H)-one]: the IC50 in assay [1] was found to be 74 nM; in assay [2], 371 nM.

For the compound `C[C@@H]1C(=O)N(C)c2ccc(Nc3ccc(C(=O)N4CCOCC4)cc3)cc2N1C1CCCCCC1` [Example 24, (3R)-4-cycloheptyl-1,3-dimethyl-6-{[4-(morpholin-4-ylcarbonyl)phenyl]amino}-3,4-dihydroquinoxalin-2(1H)-one], the IC50 in assay [1] came out at 143 nM; in assay [2], 732 nM. Turning to `COc1ccc(CN2c3cc(Nc4ccc(C(=O)N5CC6(COC6)C5)cc4)ccc3N(C)C(=O)[C@H]2C)cc1` [Example 20, (3R)-4-(4-methoxybenzyl)-1,3-dimethyl-6-{[4-(2-oxa-6-azaspiro[3.3]hept-6-ylcarbonyl)phenyl]amino}-3,4-dihydroquinoxalin-2(1H)-one], the IC50 was determined as 105 nM in assay [1] and 256 nM in assay [2]. On to `C[C@@H]1C(=O)N(C)c2ccc(Nc3ccc(C(=O)NC4CC4)cc3)cc2N1C1CCOCC1` [Example 35, N-cyclopropyl-4-{[(3R)-1,3-dimethyl-2-oxo-4-(tetrahydro-2H-pyran-4-yl)-1,2,3,4-tetrahydroquinoxalin-6-yl]amino}benzamide], for which the IC50 in assay [1] turned out to be 365 nM; in assay [2], 2400 nM. The compound `C[C@@H]1C(=O)N(C)c2ccc(Nc3ccc(C(=O)NC4CC4)cc3)cc2N1Cc1ccccc1` [Example 10, 4-{[(3R)-4-benzyl-1,3-dimethyl-2-oxo-1,2,3,4-tetrahydroquinoxalin-6-yl]amino}-N-cyclopropylbenzamide] registered an IC50 in assay [1] of 308 nM.

(Values after patent US20150344444A1, “BET-PROTEIN-INHIBITING DIHYDROXYQUINOXALINONES” (BAYER PHARMA AKTIENGESELLSCHAFT, priority 2012, published 2015).)
